From the NIST ThermoML archive (doi:10.1016/j.jct.2014.07.003)

Test: mn = molality of the nth substance listed, in mol/kg
Conditions: 99 kPa, Liquid, Alternating current cell with electrodes

CCCCCCCCCCCC[N+](C)(C)C.[Br-] [dodecyltrimethylammonium bromide] + O
electrical conductivity [S/m]
Conditions	288.15 K	293.15 K	298.15 K	303.15 K	308.15 K	313.15 K	318.15 K
m1 = 0.0015	0.0137	0.014	0.0143	0.0144	0.0153	0.0169	0.018
m1 = 0.003	0.0265	0.027	0.0273	0.0278	0.0286	0.032	0.034
m1 = 0.0045	0.039	0.0397	0.0412	0.0413	0.042	0.0469	0.049
m1 = 0.0059	0.05	0.052	0.053	0.0545	0.0547	0.0605	0.0645
m1 = 0.0073	0.061	0.0635	0.0659	0.067	0.0675	0.0749	0.0771
m1 = 0.0087	0.0725	0.0748	0.0769	0.079	0.0795	0.088	0.0905
m1 = 0.0101	0.0837	0.086	0.089	0.0895	0.0903	0.101	0.103
m1 = 0.0116	0.095	0.0975	0.1	0.101	0.102	0.114	0.116
m1 = 0.013	0.106	0.108	0.11	0.112	0.113	0.126	0.128
m1 = 0.0144	0.115	0.118	0.12	0.122	0.123	0.135	0.138
m1 = 0.0157	0.124	0.126	0.128	0.129	0.131	0.142	0.145
m1 = 0.017	0.129	0.131	0.132	0.134	0.136	0.146	0.15
m1 = 0.0184	0.132	0.133	0.134	0.137	0.14	0.15	0.154
m1 = 0.0197	0.135	0.136	0.136	0.14	0.142	0.154	0.158
m1 = 0.021	0.137	0.138	0.139	0.143	0.145	0.157	0.161
m1 = 0.0223	0.139	0.14	0.142	0.146	0.148	0.159	0.163
m1 = 0.0236	0.141	0.142	0.143	0.149	0.152	0.162	0.167
m1 = 0.0249	0.143	0.144	0.146	0.151	0.154	0.164	0.17
m1 = 0.0274	0.146	0.149	0.15	0.155	0.158	0.168	0.174
m1 = 0.0286	0.148	0.151	0.153	0.157	0.16	0.17	0.177
m1 = 0.0298	0.15	0.154	0.156	0.159	0.162	0.172	0.179
